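Results reflect a 48-hour exposure of cells in 96-well plates to compound at five concentrations. GI50 is the concentration that inhibits growth by half.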 Activity calls are given as the source filed them. Rule as the data show it: active = GI50 up to about 1.1 µM and inactive = higher.
Assays:
Assay in all cases: growth of human tumour cells (NCI), 48 h
OVCAR-3 = system: OVCAR-3
CCRF-CEM = system: CCRF-CEM
HCT-15 = system: HCT-15
HOP-62 = system: HOP-62
HL-60 = system: HL-60
NCI-H460 = system: NCI-H460
DU-145 = system: DU-145
HCT-116 = system: HCT-116
A549 = system: A549
CAKI-1 = system: CAKI-1
SR = system: SR
TK-10 = system: TK-10
OVCAR-8 = system: OVCAR-8
SW-620 = system: SW-620
SK-MEL-28 = system: SK-MEL-28
MOLT-4 = system: MOLT-4
MDA-MB-435 = system: MDA-MB-435
KM12 = system: KM12
UACC-257 = system: UACC-257
SF-295 = system: SF-295

| Structure (SMILES) | GI50 (OVCAR-3) | GI50 (CCRF-CEM) | GI50 (HCT-15) [µM] | GI50 (HOP-62) | GI50 (HL-60) | GI50 (NCI-H460) | GI50 (DU-145) | GI50 (HCT-116) | GI50 (A549) | GI50 (CAKI-1) | GI50 (SR) | GI50 (TK-10) | GI50 (OVCAR-8) | GI50 (SW-620) | GI50 (SK-MEL-28) | GI50 (MOLT-4) | GI50 (MDA-MB-435) | GI50 (KM12) | GI50 (UACC-257) | GI50 (SF-295) |
| --- | --- | --- | --- | --- | --- | --- | --- | --- | --- | --- | --- | --- | --- | --- | --- | --- | --- | --- | --- | --- |
| COc1cccc(CCCNC(=O)Cc2ccccc2CO)c1 | > 100 µM (inactive) | > 100 µM (inactive) | > 100 | > 100 µM (inactive) | > 100 µM (inactive) | > 100 µM (inactive) | > 100 µM (inactive) | > 100 µM (inactive) | > 100 µM (inactive) | > 100 µM (inactive) | > 100 µM (inactive) | > 100 µM (inactive) | > 100 µM (inactive) | > 100 µM (inactive) | > 100 µM (inactive) | > 100 µM (inactive) | > 100 µM (inactive) | > 100 µM (inactive) | > 100 µM (inactive) | > 100 µM (inactive) |
| O=C(O)CSCc1cc2c(O)c(c1)Cc1cc(CSCC(=O)O)cc(c1O)Cc1cc(CSCC(=O)O)cc(c1O)Cc1cc(CSCC(=O)O)cc(c1O)C2 | > 100 µM (inactive) | > 100 µM (inactive) | > 100 | > 100 µM (inactive) | > 100 µM (inactive) | > 100 µM (inactive) | > 100 µM (inactive) | > 100 µM (inactive) | > 100 µM (inactive) | > 100 µM (inactive) | > 100 µM (inactive) | > 100 µM (inactive) | > 100 µM (inactive) | > 100 µM (inactive) | > 100 µM (inactive) | > 100 µM (inactive) | 61.1 µM (inactive) | > 100 µM (inactive) | > 100 µM (inactive) | > 100 µM (inactive) |
| NC[C@H]1Nc2ccccc2[C@@H](O)C1O (stereo not given in full) | > 100 µM (inactive) | > 100 µM (inactive) | > 100 | > 100 µM (inactive) | > 100 µM (inactive) | > 100 µM (inactive) | > 100 µM (inactive) | > 100 µM (inactive) | > 100 µM (inactive) | > 100 µM (inactive) | > 100 µM (inactive) | > 100 µM (inactive) | > 100 µM (inactive) | > 100 µM (inactive) | > 100 µM (inactive) | > 100 µM (inactive) | > 100 µM (inactive) | > 100 µM (inactive) | > 100 µM (inactive) | > 100 µM (inactive) |
| O=C(O)CC(CC(=O)O)C(=O)O [TRICARBALLYLIC ACID] | > 100 µM (inactive) | > 100 µM (inactive) | > 100 | > 100 µM (inactive) | > 100 µM (inactive) | > 100 µM (inactive) | > 100 µM (inactive) | > 100 µM (inactive) | > 100 µM (inactive) | > 100 µM (inactive) | > 100 µM (inactive) | > 100 µM (inactive) | > 100 µM (inactive) | > 100 µM (inactive) | > 100 µM (inactive) | > 100 µM (inactive) | > 100 µM (inactive) | > 100 µM (inactive) | > 100 µM (inactive) | > 100 µM (inactive) |

From ChEMBL document CHEMBL1201862, “PubChem BioAssay data set” (2004)
